Assay: Phase 1 safety: adverse events
Format: in vivo, human
Method: All patients underwent a complete medical history and physical examination, assessment of ECOG performance status and vital signs, and laboratory analysis of haematology, coagulation, clinical chemistry, and urine. Three serial resting and supine 12-lead electrocardiograms were conducted over 5–10 min and cardiac ejection fraction was assessed by echocardiogram or MUGA. In addition, a complete ophthalmologic examination (including visual acuity; fundoscopy and tonometry; optical coherence tomography; and slit-lamp, lens, vitreous, and fluorescence dye examinations) was performed on each patient. These assessments were repeated throughout study participation and/or as clinically indicated. Adverse events were reviewed on an ongoing basis.
Adverse events and serious AEs (SAEs) were coded by preferred term (PT) and system organ class using the Medical Dictionary for Regulatory Activities version 12.0. The severity of AEs was assessed by investigators using the National Cancer Institute Common Terminology Criteria for Adverse Events version 3.0. Two AEs of special interest were captured under the composite terms of ‘combined rash' and ‘combined ocular events.' The ‘combined rash' term included the PTs of dermatitis acneiform, acne, skin exfoliation, and any term containing ‘rash'. The ‘combined ocular events' term included the PTs of retinal deposits, retinopathy, papilloedema, chorioretinopathy, macular oedema, retinal detachment, and retinal disorder.
All patients who received ⩾1 dose of binimetinib were included in the safety analysis. Patients in the safety analysis who had ⩾1 measurable lesion at baseline and at least 1 post-baseline disease assessment were evaluable for efficacy. Kaplan–Meier estimates of progression-free survival (PFS) and overall survival (OS) were performed for patients in the expansion phase ([Kaplan and Meier, 1958]) using SAS Version 9.2 (SAS Institute Inc., Cary, NC, USA).

Compound: Cn1cnc2c(F)c(Nc3ccc(Br)cc3F)c(C(=O)NOCCO)cc21 [binimetinib]
- Abdominal pain (30 mg BID (n=4), Gr 1/2): 1 (25) n (%)
- Anaemia (30 mg BID (n=4), Gr 1/2): 1 (25) n (%)
- Anorexia (30 mg BID (n=4), Gr 1/2): 1 (25) n (%)
- Combined ocular events (30 mg BID (n=4), Gr 1/2): 0 (0) n (%)
- Combined rash (30 mg BID (n=4), Gr 1/2): 4 (100) n (%)
- Constipation (30 mg BID (n=4), Gr 1/2): 2 (50) n (%)
- Diarrhoea (30 mg BID (n=4), Gr 1/2): 4 (100) n (%)
- Dizziness (30 mg BID (n=4), Gr 1/2): 0 (0) n (%)
- Dyspnoea (30 mg BID (n=4), Gr 1/2): 2 (50) n (%)
- Fatigue (30 mg BID (n=4), Gr 1/2): 2 (50) n (%)
- Nausea (30 mg BID (n=4), Gr 1/2): 3 (75) n (%)
- Peripheral oedema (30 mg BID (n=4), Gr 1/2): 0 (0) n (%)
- Pyrexia (30 mg BID (n=4), Gr 1/2): 2 (50) n (%)
- Vomiting (30 mg BID (n=4), Gr 1/2): 3 (75) n (%)
- Abdominal pain (30 mg BID (n=4), Gr 3/4): 0 (0) n (%)
- Anaemia (30 mg BID (n=4), Gr 3/4): 0 (0) n (%)
- Anorexia (30 mg BID (n=4), Gr 3/4): 0 (0) n (%)
- Combined ocular events (30 mg BID (n=4), Gr 3/4): 0 (0) n (%)
- Combined rash (30 mg BID (n=4), Gr 3/4): 0 (0) n (%)
- Constipation (30 mg BID (n=4), Gr 3/4): 0 (0) n (%)
- Diarrhoea (30 mg BID (n=4), Gr 3/4): 0 (0) n (%)
- Dizziness (30 mg BID (n=4), Gr 3/4): 0 (0) n (%)
- Dyspnoea (30 mg BID (n=4), Gr 3/4): 0 (0) n (%)
- Fatigue (30 mg BID (n=4), Gr 3/4): 0 (0) n (%)
- Nausea (30 mg BID (n=4), Gr 3/4): 0 (0) n (%)
- Peripheral oedema (30 mg BID (n=4), Gr 3/4): 0 (0) n (%)
- Pyrexia (30 mg BID (n=4), Gr 3/4): 0 (0) n (%)
- Vomiting (30 mg BID (n=4), Gr 3/4): 0 (0) n (%)
- Incidence of ocular events (30 mg BID dose group): 0%
- Patients reporting SAEs (30 mg BID dose group): 50%
- Abdominal pain (45 mg BID (n=44), Gr 1/2): 7 (16) n (%)
- Anaemia (45 mg BID (n=44), Gr 1/2): 5 (11) n (%)
- Anorexia (45 mg BID (n=44), Gr 1/2): 8 (18) n (%)
- Combined ocular events (45 mg BID (n=44), Gr 1/2): 5 (11) n (%)
- Combined rash (45 mg BID (n=44), Gr 1/2): 33 (75) n (%)
- Constipation (45 mg BID (n=44), Gr 1/2): 6 (14) n (%)
- Diarrhoea (45 mg BID (n=44), Gr 1/2): 17 (39) n (%)
- Dizziness (45 mg BID (n=44), Gr 1/2): 5 (11) n (%)
- Dyspnoea (45 mg BID (n=44), Gr 1/2): 5 (11) n (%)
- Fatigue (45 mg BID (n=44), Gr 1/2): 18 (41) n (%)
- Nausea (45 mg BID (n=44), Gr 1/2): 27 (61) n (%)
- Peripheral oedema (45 mg BID (n=44), Gr 1/2): 20 (45) n (%)
- Pyrexia (45 mg BID (n=44), Gr 1/2): 7 (16) n (%)
- Vomiting (45 mg BID (n=44), Gr 1/2): 23 (52) n (%)
- Abdominal pain (45 mg BID (n=44), Gr 3/4): 1 (2) n (%)
- Anaemia (45 mg BID (n=44), Gr 3/4): 3 (7) n (%)
- Anorexia (45 mg BID (n=44), Gr 3/4): 0 (0) n (%)
- Combined ocular events (45 mg BID (n=44), Gr 3/4): 0 (0) n (%)
- Combined rash (45 mg BID (n=44), Gr 3/4): 1 (2) n (%)
- Constipation (45 mg BID (n=44), Gr 3/4): 0 (0) n (%)
- Diarrhoea (45 mg BID (n=44), Gr 3/4): 0 (0) n (%)
- Dizziness (45 mg BID (n=44), Gr 3/4): 0 (0) n (%)
- Dyspnoea (45 mg BID (n=44), Gr 3/4): 2 (5) n (%)
- Fatigue (45 mg BID (n=44), Gr 3/4): 2 (5) n (%)
- Nausea (45 mg BID (n=44), Gr 3/4): 0 (0) n (%)
- Peripheral oedema (45 mg BID (n=44), Gr 3/4): 0 (0) n (%)
- Pyrexia (45 mg BID (n=44), Gr 3/4): 0 (0) n (%)
- Vomiting (45 mg BID (n=44), Gr 3/4): 0 (0) n (%)
- AEs resulting in treatment discontinuation, patients (45 mg BID dose group): 16%
- AEs that resulted in dose reduction, patients (45 mg BID dose group): 16%
- Incidence of combined rash (45 mg BID dose group): 77%
- Incidence of diarrhoea (45 mg BID dose group): 39%
- Incidence of nausea (45 mg BID dose group): 61%
- Incidence of ocular events (45 mg BID dose group): 11%
- Incidence of peripheral oedema (45 mg BID dose group): 45%
- Incidence of vomiting (45 mg BID dose group): 52%
- Median time to onset of combined rash (45 mg BID dose group): 8 days
- Patients reporting SAEs (45 mg BID dose group): 20%
- Abdominal pain (60 mg BID (n=41), Gr 1/2): 7 (17) n (%)
- Anaemia (60 mg BID (n=41), Gr 1/2): 5 (12) n (%)
- Anorexia (60 mg BID (n=41), Gr 1/2): 8 (20) n (%)
- Combined ocular events (60 mg BID (n=41), Gr 1/2): 11 (27) n (%)
- Combined rash (60 mg BID (n=41), Gr 1/2): 35 (85) n (%)
- Constipation (60 mg BID (n=41), Gr 1/2): 8 (20) n (%)
- Diarrhoea (60 mg BID (n=41), Gr 1/2): 25 (61) n (%)
- Dizziness (60 mg BID (n=41), Gr 1/2): 9 (22) n (%)
- Dyspnoea (60 mg BID (n=41), Gr 1/2): 6 (15) n (%)
- Fatigue (60 mg BID (n=41), Gr 1/2): 16 (39) n (%)
- Nausea (60 mg BID (n=41), Gr 1/2): 21 (51) n (%)
- Peripheral oedema (60 mg BID (n=41), Gr 1/2): 21 (51) n (%)
- Pyrexia (60 mg BID (n=41), Gr 1/2): 7 (17) n (%)
- Vomiting (60 mg BID (n=41), Gr 1/2): 20 (49) n (%)
- Abdominal pain (60 mg BID (n=41), Gr 3/4): 3 (7) n (%)
- Anaemia (60 mg BID (n=41), Gr 3/4): 10 (24) n (%)
- Anorexia (60 mg BID (n=41), Gr 3/4): 0 (0) n (%)
- Combined ocular events (60 mg BID (n=41), Gr 3/4): 0 (0) n (%)
- Combined rash (60 mg BID (n=41), Gr 3/4): 1 (2) n (%)
- Constipation (60 mg BID (n=41), Gr 3/4): 2 (5) n (%)
- Diarrhoea (60 mg BID (n=41), Gr 3/4): 0 (0) n (%)
- Dizziness (60 mg BID (n=41), Gr 3/4): 0 (0) n (%)
- Dyspnoea (60 mg BID (n=41), Gr 3/4): 1 (2) n (%)
- Fatigue (60 mg BID (n=41), Gr 3/4): 1 (2) n (%)
- Nausea (60 mg BID (n=41), Gr 3/4): 0 (0) n (%)
- Peripheral oedema (60 mg BID (n=41), Gr 3/4): 0 (0) n (%)
- Pyrexia (60 mg BID (n=41), Gr 3/4): 1 (2) n (%)
- Vomiting (60 mg BID (n=41), Gr 3/4): 0 (0) n (%)
- AEs resulting in treatment discontinuation, patients (60 mg BID dose group): 15%
- AEs that resulted in dose reduction, patients (60 mg BID dose group): 49%
- Incidence of combined rash (60 mg BID dose group): 88%
- Incidence of diarrhoea (60 mg BID dose group): 61%
- Incidence of nausea (60 mg BID dose group): 51%
- Incidence of ocular events (60 mg BID dose group): 27%
- Incidence of peripheral oedema (60 mg BID dose group): 51%
- Incidence of vomiting (60 mg BID dose group): 49%
- Median time to onset of combined rash (60 mg BID dose group): 10 days
- Patients reporting SAEs (60 mg BID dose group): 41%
- Abdominal pain (80 mg BID (n=4), Gr 1/2): 1 (25) n (%)

— article PMC5344293, “A phase 1 dose-escalation and expansion study of binimetinib (MEK162), a potent and selective oral MEK1/2 inhibitor” (British Journal of Cancer, 2017)
